Assay results: ChEMBL document CHEMBL1132532, “Correlation of anti-HIV activity with structure: use of electrostatic potential and conformational analysis” (Bioorg Med Chem Lett, 1999)
pIC50: −log10 of the molar value.

Key:
Type in all cases: functional, cell-based
Settings in all cases: Homo sapiens
MT4 = experiment: The compound was tested for anti HIV-activity (active) against MT-4 cell line
PBMC = experiment: The compound was tested for anti HIV-activity (active) against PBM cell line
ATH-8 cell line = experiment: The compound was tested for anti HIV-activity (active) against ATH8 cell line
MT2 = experiment: The compound was tested for anti HIV-activity (active) against MT-2 cell line

Row | pIC50 (ATH-8 cell line) | Compound | pIC50 (MT4) | other results
1 | – | Nc1ncnc2c1ncn2[C@@H]1O[C@H](CO)[C@H]1CO | 5.40 | –
2 | – | Nc1ncnc2c1ncn2[C@@H]1CO[C@H](CO)C1 | – | pIC50 (PBMC): 6.17
3 | – | Nc1ncnc2c1ncn2[C@@H]1C[C@H](CO)CO1 | < 3.70 | –
4 | – | Nc1ncnc2c1ncn2[C@H]1C[C@@H](CO)CO1 | < 3.70 | –
5 | 4.82 | Nc1ncnc2c1ncn2[C@H]1CO[C@@H](CO)C1 | 4.37 | –
6 | 6.72 | Nc1nc(O)c2ncn(C3C=CC(CO)O3)c2n1 (stereo not drawn) | – | pIC50 (MT2): 6.72
7 | – | Nc1nc(O)c2ncn(C3COC(CO)C3)c2n1 (stereo not drawn) | < 3.70 | –
8 | – | Nc1ccn(C2COC(CO)C2)c(=O)n1 (stereo not drawn) | < 3.70 | –
9 | – | Cc1cn(C2COC(CO)C2)c(=O)[nH]c1=O (stereo not drawn) | < 3.70 | –
10 | 6.40 | Cc1cn([C@H]2C[C@H](N=[N+]=[N-])[C@@H](CO)O2)c(=O)[nH]c1=O [ZIDOVUDINE] | – | pIC50 (PBMC): 8.40
